Data as given in patent US10612071B2, “Method of measuring the deleterious effects of non-caloric artificial sweeteners on enzymatic hydrolysis of sucrose measured in real time” (California State University, Fresno, priority 2016, dated 2020).
“Also recorded” adds a separate entry of the source. Values belong to the molecule of their own block, whether it stands above or below them.

What was measured:
Type in all cases: biochemical, S. cerevisiae
[1] = target: T1, Invertase (EC 3.2.1.26, β-fructofuranosidase) (Saccharomyces cerevisiae, UniProt P00724); assay: Real-time 1H-NMR (qNMR) progress curve analysis of invertase-catalysed sucrose hydrolysis, Lambert-W fit; conditions: for β-anomer of glucose formed: in the presence of sucralose (FIG. 5); for α-anomer of glucose formed: in the presence of sucralose (FIG. 5, 50 mM each)
T1 construct: purchased Sigma-Aldrich
Excerpt: Equation [5], derived from Equation [2], relates the substrate concentration at any time ([S]) to its initial concentration ([S]0), the Michaelis-Menten kinetic parameters Vmax and KM. Equation [5] is used to fit the real time experimental data obtained for enzyme kinetics using the analysis code written using R-Statistical environment (R Core Team 2014).
(§1) Invertase (EC 3.2.1.26, β-fructofuranosidase, S. cerevisiae) was purchased from Sigma-Aldrich with a specific activity of >300 u/mg of solid (pH 4.6, 303 K).
Two standard samples were made in standard 5 mm NMR tubes to set up the NMR parameter.
All NMR kinetics solutions were made in an Eppendorf tube with a volume of 550 μL prior to adding 100 μL of invertase into the Eppendorf tube then transferring 600 μL of the solution into a NMR tube. The 100 μL invertase solution was added into the Eppendorf tube when the NMR kinetics experiment was ready to start. A timer was set at the beginning of the addition of the invertase solution in order to account for the delay time (the time before the collection of the NMR spectra) as this is a crucial part of the latter calculation.
^1H-NMR time-course data were collected in real time by qNMR (Vairan-Agilent, VNMRS system) and the kinetic data were subsequently processed using a non-linear least square fit procedure by using the Lambert-W function. This method was applied to determine the effect on the enzyme kinetics of hydrolysis, a fundamental step in converting the sucrose to glucose and fructose. Experimental results obtained using the direct real-time measurements were validated using a glucometer based approach.
The spectrometer software is used to find the integration under each peak of the sucrose (5.41 ppm) and TSP (0.0 ppm). The concentration of the sucrose peak is calculated with reference to the known concentration of TSP. If multiple experiments are performed, averages and standard deviations of the integrations of the trials at each temperature is calculated. A two-column excel or text (tab limited format) with X=Time and Y=[S] is produced as the input to the R-program. The written code utilizes the following external libraries: spatstat and gsl (to implement functions such as LambertW function), xtable (for table manipulations) and ggplot2 (to make plots (optional)). The R-code reads the input file and creates a data fit, statistics and plot with the experimental and fitted values. Typically the procedure works with a minimum of 15 time points sampled uniformly over the experimental time period chosen and it utilizes a non-linear least square fitting procedure. In addition to generating a plot (FIG. 10A), the code generates a file in picture format (.png) and a tab-limited text file that can be imported into other plotting routines. The statistical parameters of the fit (FIG. 10B) are also available in a tabular form for reporting purposes, which includes the fitted values (Coef.), standard error of the fit, t-statistics and p-value for each of the parameters. If the signal has not decayed to zero, an additional parameter (FIG. 10B) can be used as an offset.

[2] = target: T1, Invertase (EC 3.2.1.26, β-fructofuranosidase); assay: Glucometer-based Michaelis-Menten kinetics of invertase-catalysed sucrose hydrolysis; conditions: for reaction velocity of the sucrose: sucralose 20 mM or lower (FIG. 11)
Excerpt: as §1

[3] = substrate: OC[C@H]1O[C@@](CO)(O[C@H]2O[C@H](CO)[C@@H](O)[C@H](O)[C@H]2O)[C@@H](O)[C@@H]1O; assay: Real-time 1H-NMR (qNMR) progress curve analysis of invertase-catalysed sucrose hydrolysis, Lambert-W fit; conditions: 30.0 °C
[4] = other: Average of three trials, sucrose 42 mM, no sucralose
[5] = other: Trial 1, sucrose 42 mM, no sucralose
[6] = other: Trial 2, sucrose 42 mM, no sucralose
[7] = other: Trial 3, sucrose 42 mM, no sucralose
[8] = other: no sucralose (0 mM), sucrose 40 mM, sucrose:sucralose 1:0

Vmax ([1]; no sucralose (0 mM), sucrose 40 mM, sucrose:sucralose 1:0): 2.57 ± 0.03 µM/min
Molecule: OC[C@H]1O[C@@](CO)(O[C@H]2O[C@H](CO)[C@@H](O)[C@H](O)[C@H]2O)[C@@H](O)[C@@H]1O [sucrose]

decrease of the maximal velocity (Vmax) ([1]; 1:2 ratio of sucrose:sucralose): ~33%
enzyme catalytic activity inhibited ([1]; 1:2 ratio of sucrose:sucralose): 50%
increase of the KM value ([1]; 1:2 ratio of sucrose:sucralose): ~50%
decrease of the maximal velocity (Vmax) ([1]; addition of sucralose (50 mM)): 37%
β-anomer of glucose formed ([1]; after 20 minutes): about 7 mM
sucrose concentration remaining ([1]; after 60 minutes of enzymatic conversion, in the presence of sucralose, starting sucrose 50 mM (FIG. 4)): about 15 mM
β-anomer of glucose formed ([1]; after 60 minutes): about 10 mM
α-anomer of glucose formed ([1]; after 60 minutes): about 22 mM
β-anomer of glucose formed ([1]; after 120 minutes): about 17 mM
α-anomer of glucose formed ([1]; after 120 minutes): about 22.5 mM
Vmax ([1]; in the presence of sucralose, FIG. 4 (equimolar sucrose:sucralose, ~50 mM each)): 1.87 µM/min
decrease of Vmax per unit increase of sucralose ([1]; regression line, FIG. 12B): 6.54 ± 0.03 µM/min
decrease of catalytic efficiency of the enzyme per unit increase of sucralose (in mM) ([1]; regression line, FIG. 12C): 152.1 mM^2/min
Vmax ([1]; sucralose 1 mM, sucrose 40 mM (40:1)): 2.71 ± 0.04 µM/min
Vmax ([1]; sucralose 5 mM, sucrose 40 mM (8:1)): 2.95 ± 0.04 µM/min
Vmax ([1]; sucralose 10 mM, sucrose 40 mM (4:1)): 2.61 ± 0.03 µM/min
Vmax ([1]; sucralose 20 mM, sucrose 40 mM (2:1)): 2.49 ± 0.02 µM/min
Vmax ([1]; sucralose 40 mM, sucrose 40 mM (1:1)): 2.25 ± 0.02 µM/min
increase of the KM value ([1]; sucralose 50 mM): more than 20%
reduction of the enzymatic activity of the invertase ([1]; sucralose 50 mM): 20%
Vmax ([1]; sucralose 60 mM, sucrose 40 mM (1:1.5)): 1.87 ± 0.02 µM/min
Vmax ([1]; sucralose 80 mM, sucrose 40 mM (1:2)): 1.72 ± 0.02 µM/min
inhibition (substrate inhibition model curve) ([2]; molar ratio of sucrose to sucralose 1:0.25 (FIG. 13)): more than 50%
reaction velocity of the sucrose ([2]; substrate concentration 0.1 M): over 0.4 M/min
reaction velocity of the sucrose ([2]; substrate concentration about 0.27 M): over 0.4 M/min
Molecule: OC[C@H]1O[C@H](O[C@]2(CCl)O[C@H](CCl)[C@@H](O)[C@@H]2O)[C@H](O)[C@@H](O)[C@H]1Cl [sucralose]
conversion of sucralose by enzymatic hydrolysis (invertase) ([1]; sucralose concentration during sucrose hydrolysis): not affected by enzymatic hydrolysis; also recorded: not converted

B1: Invertase (EC 3.2.1.26, β-fructofuranosidase) (Saccharomyces cerevisiae S288C) (protein)
chain: SMTNETSDRPLVHFTPNKGWMNDPNGLWYDEKDAKWHLYFQYNPNDTVWGTPLFWGHATSDDLTNWEDQPIAIAPKRNDSGAFSGSMVVDYNNTSGFFNDTIDPRQRCVAIWTYNTPESEEQYISYSLDGGYTFTEYQKNPVLAANSTQFRDPKVFWYEPSQKWIMTAAKSQDYKIEIYSSDDLKSWKLESAFANEGFLGYQYECPGLIEVPTEQDPSKSYWVMFISINPGAPAGGSFNQYFVGSFNGTHFEAFDNQSRVVDFGKDYYALQTFFNTDPTYGSALGIAWASNWEYSAFVPTNPWRSSMSLVRKFSLNTEYQANPETELINLKAEPILNISNAGPWSRFATNTTLTKANSYNVDLSNSTGTLEFELVYAVNTTQTISKSVFADLSLWFKGLEDPEEYLRMGFEVSASSFFLDRGNSKVKFVKENPYFTNRMSVNNQPFKSENDLSYYKVYGLLDQNILELYFNDGDVVSTNTYFMTTGNALGSVNMTTGVDNLFYIDKFQVREVK
notes: purchased Sigma-Aldrich
Km [3, 4]: 38.57 ± 3.72 mM
Vmax [3, 4]: 2.54 ± 0.18 µM/min
Km [3, 5]: 34.69 ± 3.96 mM
Vmax [3, 5]: 2.34 ± 0.18 µM/min
Km [3, 6]: 43.59 ± 11.90 mM
Vmax [3, 6]: 2.77 ± 0.54 µM/min
Km [3, 7]: 37.44 ± 7.79 mM
Vmax [3, 7]: 2.51 ± 0.36 µM/min
Km [3, 8]: 50.60 mM
Vmax [3, 8]: 2.57 ± 0.03 µM/min
